Results as given in article PMC12584665, “In vitro and in vivo efficacy of vancomycin against Elizabethkingia species and the impact of increased vancomycin MICs” (Microbiology Spectrum, 2025).
In brackets after ≈: the same amount, converted by molar mass.

Columns and labels:
[1] = tested on: Elizabethkingia anophelis; test: Disc diffusion (DD) zone diameter; assay type: cell-based
Description: (§1) Eighteen E. anophelis clinical isolates from the nationwide surveillance program (Taiwan Surveillance of Antimicrobial Resistance) were well characterized in our previous study ([7]) and were selected for susceptibility testing and minimum bactericidal concentration (MBC) assays. Among them, five isolates with different clonality (underlined strains in Fig. S1) were selected for the time-kill assays and in vivo experiments.
(§2) Broth microdilution, disc diffusion, Etest, and agar dilution assays were conducted following CLSI guidelines to determine vancomycin MICs ([8]). […] Criteria for Staphylococcus spp. were not adopted due to the lack of a zone diameter breakpoint. MBCs were determined following CLSI guidelines ([8]).

[2] = tested on: Elizabethkingia anophelis; test: Murine neutropenic thigh infection model; assay type: in vivo, C57BL/6J mice
Protocol: (§3) In vivo efficacy was assessed by wax moth (Galleria mellonella), murine pneumonia, and murine thigh infection models following the protocols of our previous study ([2]). The Animal Ethics Committee of Taiwan’s National Health Research Institutes approved the murine pneumonia and thigh infection models.
For the thigh infection model, seven-week-old C57BL/6J mice were rendered neutropenic by intraperitoneal injections of cyclophosphamide (Cytoxan; Bristol-Myers Squibb, Princeton, NJ, USA) 4 days (150 mg/kg) and 1 day (100 mg/kg) before bacterial inoculation. A 30 µL aliquot containing the E. anophelis (10^7 cfu) was injected into each of the two rear thighs. Vancomycin (25 mg/kg or 100 mg/kg, subcutaneous) or teicoplanin (50 mg/kg, intraperitoneal) was administered 2 h and 14 h after inoculation. Mice were sacrificed 24 h post-inoculation, and homogenized thigh tissue was plated in serial 10-fold dilutions on brain-heart infusion agar to determine bacterial counts. Each mouse, not each thigh, was considered an individual data point.

[3] = tested on: Elizabethkingia anophelis; test: Galleria mellonella (wax moth) infection survival model; assay type: in vivo
Protocol: as §3
G. mellonella was reared at the National Health Research Institutes of Taiwan. Caterpillars in the final instar larval stage (weight ca. 250 mg) were used. […] A 10 µL aliquot of E. anophelis at the predetermined lethal dose was injected into the hemocoel of each caterpillar via the last left proleg. Antibiotics were administered once into another proleg at the indicated time points; vancomycin (5, 10, or 20 mg/kg, 2 h post-inoculation); other glycopeptides (teicoplanin, 10 mg/kg, 30 min post-inoculation; dalbavancin, 8.75 mg/kg, 2 h post-inoculation; oritavancin, 15 mg/kg, 1 h post-inoculation) ([11][–][13]); or daptomycin (10 mg/kg, 2 h post-inoculation) ([13]). Each treatment group contained 6–8 caterpillars. A control group injected with sterile PBS was included to monitor for trauma-related mortality. Caterpillars were incubated at 37°C, and survival was recorded twice daily for 72 h.

[4] = tested on: Elizabethkingia anophelis; test: Agar dilution (AD) MIC; assay type: cell-based
Description: as §1, §2

[5] = tested on: Elizabethkingia anophelis; test: Murine pneumonia model; assay type: in vivo, C57BL/6J mice; settings: for survival of infected mice: 8 mice per group
Protocol: as §3
For the pneumonia model, a bacterial suspension was mixed with 5% mucin from porcine stomach (type 3; Sigma-Aldrich, Saint Louis, USA). Seven-week-old C57BL/6J mice were anesthetized with isoflurane for 10 min. For each strain, the inoculum corresponded to the lowest dose that caused >80% mortality in preliminary testing. This inoculum (10⁶–10⁸ cfu, depending on strain) was delivered intratracheally to induce pneumonia. Two hours thereafter, mice received either high or human-equivalent doses of subcutaneous vancomycin (100 mg/kg or 25 mg/kg, respectively) or intraperitoneal teicoplanin (50 mg/kg) ([17]) twice daily for 3 days. Each group contained eight mice, and survival was monitored for 3 days.

[6] = tested on: Elizabethkingia anophelis; test: Time-kill assay; assay type: cell-based; settings: triplicate; for growth in time-kill assay: five clinical isolates, MH broth, ~5 x 10^5 CFU/mL, 37°C
Protocol: Time-kill assays were performed as previously described with modifications ([10]). Each 250 mL flask containing 30 mL MH broth (Becton Dickinson, Franklin Lakes, NJ, USA) was inoculated to achieve an initial bacterial density of ~5 × 10⁵ CFU/mL. Cultures were incubated at 37°C with shaking at 200 rpm. Vancomycin or teicoplanin (Sigma-Aldrich, Saint Louis, MO, USA) was added at final concentrations of 4 or 16 mg/L. At designated time points, 100 µL of samples was removed, serially diluted in sterile saline, and plated on MH agar for CFU enumeration after overnight incubation at 37°C. No washing steps were performed prior to plating; given the culture volume and dilution scheme, antibiotic carryover was expected to be negligible. All experiments were performed in triplicate.

[7] = E. anophelis clinical isolate 2008N05-106
[8] = E. anophelis clinical isolate 2008S01-229
[9] = E. anophelis clinical isolate 2014C06-157
[10] = E. anophelis clinical isolate 2016N17-576
[11] = E. anophelis clinical isolate 2018C04-213
[12] = E. anophelis clinical isolate 2018C04-224
[13] = E. anophelis clinical isolate 2018C07-210
[14] = E. anophelis clinical isolate 2018C07-234
[15] = E. anophelis clinical isolate 2018C08-127
[16] = E. anophelis clinical isolate 2018E03-151
[17] = E. anophelis clinical isolate 2018E04-135
[18] = E. anophelis clinical isolate 2018N16-057
[19] = E. anophelis clinical isolate 2018N17-036
[20] = E. anophelis clinical isolate 2018N17-073
[21] = E. anophelis clinical isolate 2018N17-153
[22] = E. anophelis clinical isolate 2018N21-226
[23] = E. anophelis clinical isolate 2018S09-023
[24] = E. anophelis clinical isolate 2018S11-172
[25] = 100 mg/kg twice daily, infection by 2008S01-229-VAN-R compared to 2008S01-229

CN[C@H](CC(C)C)C(=O)N[C@H]1C(=O)N[C@@H](CC(N)=O)C(=O)N[C@H]2C(=O)N[C@H]3C(=O)N[C@H](C(=O)N[C@H](C(=O)O)c4cc(O)cc(O)c4-c4cc3ccc4O)[C@H](O)c3ccc(c(Cl)c3)Oc3cc2cc(c3O[C@@H]2O[C@H](CO)[C@@H](O)[C@H](O)[C@H]2O[C@H]2C[C@](C)(N)[C@H](O)[C@H](C)O2)Oc2ccc(cc2Cl)[C@H]1O [Vancomycin]
zone diameters, all isolates ([1]; 18 E. anophelis isolates, disc diffusion, susceptibility breakpoint >= 17 mm (Enterococcus spp.)): < 17 mm
DD zone diameter [1, 7]: 15 mm
DD zone diameter [1, 8]: 15 mm
DD zone diameter [1, 9]: 15 mm
DD zone diameter [1, 10]: 15 mm
DD zone diameter [1, 11]: 15 mm
DD zone diameter [1, 12]: 15 mm
DD zone diameter [1, 13]: 14 mm
DD zone diameter [1, 14]: 15 mm
DD zone diameter [1, 15]: 14 mm
DD zone diameter [1, 16]: 14 mm
DD zone diameter [1, 17]: 14 mm
DD zone diameter [1, 18]: 15 mm
DD zone diameter [1, 19]: 15 mm
DD zone diameter [1, 20]: 14 mm
DD zone diameter [1, 21]: 14 mm
DD zone diameter [1, 22]: 13 mm
DD zone diameter [1, 23]: 15 mm
DD zone diameter [1, 24]: 13 mm
bacterial loads in thigh ([2]; 25 mg/kg subcutaneous 2 h and 14 h after inoculation, neutropenic mice, 24 h, all clinical strains, 4 mice per group): modestly reduced the bacterial loads
bacterial load in thigh ([2]; 100 mg/kg subcutaneous 2 h and 14 h after inoculation, neutropenic mice, 24 h, compared with 25 mg/kg): greater reduction of bacterial load
reduction of bacterial load [2, 25]: hampered
survival of infected wax moths ([3]; 10 mg/kg once, 2 h post-inoculation, five E. anophelis isolates, 72 h, 37°C, 6-8 caterpillars per group): improved the survival
improvement of larval survival ([3]; 10 mg/kg, infection by 2008S01-229-VAN-R compared to 2008S01-229): hampered
dose dependence of survival of infected wax moths ([3]; 5, 10 and 20 mg/kg once, 2 h post-inoculation, two clinical isolates): dose-dependent effect
MIC [4, 7]: 16 µg/mL (≈ 11 µM)
MIC [4, 8]: 16 µg/mL (≈ 11 µM)
MIC [4, 9]: 16 µg/mL (≈ 11 µM)
MIC [4, 10]: 16 µg/mL (≈ 11 µM)
MIC [4, 11]: 16 µg/mL (≈ 11 µM)
MIC [4, 12]: 16 µg/mL (≈ 11 µM)
MIC [4, 13]: 16 µg/mL (≈ 11 µM)
MIC [4, 14]: 16 µg/mL (≈ 11 µM)
MIC [4, 15]: 16 µg/mL (≈ 11 µM)
MIC [4, 16]: 16 µg/mL (≈ 11 µM)
MIC [4, 17]: 16 µg/mL (≈ 11 µM)
MIC [4, 18]: 16 µg/mL (≈ 11 µM)
MIC [4, 19]: 16 µg/mL (≈ 11 µM)
MIC [4, 20]: 16 µg/mL (≈ 11 µM)
MIC [4, 21]: 16 µg/mL (≈ 11 µM)
MIC [4, 22]: 16 µg/mL (≈ 11 µM)
MIC [4, 23]: 16 µg/mL (≈ 11 µM)
MIC [4, 24]: 32 µg/mL (≈ 22.1 µM)
survival of infected mice ([5]; 25 mg/kg subcutaneous twice daily for 3 days, from 2 h after intratracheal inoculation, all clinical strains except 2014C06-157): significantly improved the survival or delayed death
in vivo efficacy against one isolate ([5]; 25 mg/kg, one isolate with similar MIC (2014C06-157)): ineffective
survival of infected mice ([5]; 100 mg/kg subcutaneous twice daily for 3 days): conferred a survival benefit
improvement of murine survival [5, 25]: hampered
growth in time-kill assay ([6]; 4 mg/L): did not inhibit the growth
growth in time-kill assay ([6]; 16 mg/L): Growth was inhibited at a higher level (16 mg/L) at 6 h but increased thereafter
time-kill assay ([6]; 4 or 16 mg/L, mutant 2008S01-229-VAN-R): no effect
